Assay results published in the OPERA property sets (Mansouri et al. 2018).
≈ marks a conversion by molar mass, not a printed value.

Settings: for solubility: 20 °C

| Compound | solubility | logP |
| --- | --- | --- |
| COP(=S)(OC)SCN1C(=O)c2ccccc2C1=O | 76.9 µM (≈ 24.4 µg/mL) |  |
| COc1nn(CSP(=S)(OC)OC)c(=O)s1 | 619 µM (≈ 187 µg/mL) |  |
| CCOP(=O)(OCC)SCS(=O)(=O)CC |  | 1.98 |
| CNC(=O)Oc1ccccc1OC(C)C | 8890 µM (≈ 1860 µg/mL) |  |
| COP(=S)(OC)Oc1ccc([N+](=O)[O-])cc1 | 143 µM (≈ 37.7 µg/mL) |  |
| COP(=S)(OC)Oc1ccc([N+](=O)[O-])cc1Cl | 49.4 µM (≈ 14.7 µg/mL) |  |
| CNC(=O)Oc1ccc(N(C)C)c(C)c1 | 4390 µM (≈ 915 µg/mL) |  |
| COP(=S)(OC)SCSc1ccc(Cl)cc1 | 5.08 µM (≈ 1.6 µg/mL) |  |
| COP(=S)(OC)Oc1ccc(SC)c(C)c1 | 26.9 µM (≈ 7.5 µg/mL) |  |
| CCOP(=O)(OCC)OC(=CCl)c1ccc(Cl)cc1Cl | 345 µM (≈ 124 µg/mL) |  |
| CCOC(=O)CC(SP(=S)(OC)OC)C(=O)OCC (configuration not stated) | 433 µM (≈ 143 µg/mL) |  |
| CCOP(=S)(OCC)SCn1nnc2ccccc2c1=O | 30.4 µM (≈ 10.5 µg/mL) |  |
